# Measurements as given in ChEMBL document CHEMBL5113401, “Novel 1,3,4-oxadiazole chalcogen analogues: Synthesis and cytotoxic activity” (Eur J Med Chem, 2022).
# Calls of active or inactive are those of the source. The calls are words filed in the database; no cut-off is given here.
# Columns and labels:
# HeLa [1] = test: Induction of apoptosis in human HeLa cells assessed as late apoptotic cells at 1 uM incubated for 24 hrs by Annexin V-FITC/7-AAD staining based flow cytometric analysis (reference value: 11.1 +/- 0.778 %); format: functional
# PC-3 [2] = test: Induction of cell cycle arrest in human PC-3 cells assessed as accumulation of cells at S phase at 1 uM incubated for 18 hrs by FACS flow cytometry analysis (reference value: 35.06 %); format: functional
# HeLa [3] = test: Inhibition of colony formation in human HeLa cells at IC50 incubated for 2 weeks with culture medium replacement for every 3 days by crystal violet staining based analysis; format: functional, cell-based
# HeLa [4] = test: Induction of cell cycle arrest in human HeLa cells assessed as accumulation of cells at S phase at 1 uM incubated for 18 hrs by FACS flow cytometry analysis (reference value: 17.41 +/- 1.16 %); format: functional
# PC-3 [5] = test: Induction of cell cycle arrest in human PC-3 cells assessed as accumulation of cells at S phase at 1 uM incubated for 6 hrs by FACS flow cytometry analysis (reference value: 35.06 +/- 1.85 %); format: functional
# HeLa [6] = test: Induction of apoptosis in human HeLa cells assessed as early apoptotic cells at 1 uM incubated for 24 hrs by Annexin V-FITC/7-AAD staining based flow cytometric analysis (reference value: 2.7 +/- 0.424 %); format: functional
# HeLa [7] = test: Induction of cell cycle arrest in human HeLa cells assessed as accumulation of cells at S phase at 1 uM incubated for 12 hrs by FACS flow cytometry analysis (reference value: 17.41 %); format: functional
# HeLa [8] = test: Induction of apoptosis in human HeLa cells assessed as dead cells at 1 uM incubated for 24 hrs by Annexin V-FITC/7-AAD staining based flow cytometric analysis (reference value: 0.6 +/- 0.707 %); format: functional
# HeLa [9] = test: Induction of cell cycle arrest in human HeLa cells assessed as accumulation of cells at G1 phase at 1 uM incubated for 18 hrs by FACS flow cytometry analysis (reference value: 69.94 +/- 1.25 %); format: functional
# PC-3 [10] = test: Induction of cell cycle arrest in human PC-3 cells assessed as accumulation of cells at S phase at 1 uM incubated for 12 hrs by FACS flow cytometry analysis (reference value: 35.06 +/- 1.36 %); format: functional
# HeLa [11] = test: Induction of cell cycle arrest in human HeLa cells assessed as accumulation of cells at G2/M phase at 1 uM incubated for 6 hrs by FACS flow cytometry analysis (reference value: 12.66 +/- 0.88 %); format: functional
# Tubulin (Homo sapiens) [12] = target: T1, Tubulin (Homo sapiens) (UniProt P68371+Q9H4B7+P0DPH7+P68366+Q13509+Q71U36+P04350+Q3ZCM7+P07437+P68363+Q9BQE3+Q6PEY2+Q13885+Q9BVA1+Q9BUF5); test: Inhibition of tubulin polymerization in human HeLa cells assessed as abnormal microtubule network at 0.5 uM incubated for 6 hrs by DAPI staining based fluorescence microscopic analysis; format: cell-based
# PC-3 [13] = test: Antiproliferative activity against human PC-3 cells assessed as inhibition of cell growth incubated for 48 hrs by XTT assay; format: functional, cell-based; conditions: PC-3, 48 h
# PC-3 [14] = test: Induction of cell cycle arrest in human PC-3 cells assessed as accumulation of cells at G1 phase at 1 uM incubated for 18 hrs by FACS flow cytometry analysis (reference value: 44.2 %); format: functional
# PC-3 [15] = test: Induction of cell cycle arrest in human PC-3 cells assessed as accumulation of cells at G1 phase at 1 uM incubated for 12 hrs by FACS flow cytometry analysis (reference value: 44.2 +/- 2.01 %); format: functional
# HeLa [16] = test: Induction of apoptosis in human HeLa cells assessed as viable cells at 1 uM incubated for 24 hrs by Annexin V-FITC/7-AAD staining based flow cytometric analysis (reference value: 85.6 +/- 1.061%); format: functional; conditions: read-out: Activity
# PC-3 [17] = test: Induction of cell cycle arrest in human PC-3 cells assessed as accumulation of cells at G2/M phase at 1 uM incubated for 6 hrs by FACS flow cytometry analysis (reference value: 20.74 +/- 1.93 %); format: functional
# HeLa [18] = test: Antiproliferative activity against human HeLa cells assessed as inhibition of cell growth incubated for 48 hrs by XTT assay; format: functional, cell-based
# PC-3 [19] = test: Induction of cell cycle arrest in human PC-3 cells assessed as accumulation of cells at G2/M phase at 1 uM incubated for 12 hrs by FACS flow cytometry analysis (reference value: 20.74 +/- 1.95 %); format: functional
# MCF7 = test: Antiproliferative activity against human MCF7 cells assessed as inhibition of cell growth incubated for 48 hrs by XTT assay; format: functional, cell-based; conditions: MCF7, 48 h
# HeLa [20] = test: Induction of cell cycle arrest in human HeLa cells assessed as accumulation of cells at G2/M phase at 1 uM incubated for 12 hrs by FACS flow cytometry analysis (reference value: 12.66 %); format: functional
# NB1 = test: Cytotoxicity against human NB1 cells immortalized with hTERT plasmid assessed as reduction in cell viability at 1 to 2 uM incubated for 48 hrs by XTT assay; format: toxicity, cell-based; conditions: nb1, 48 h, dose 1-2 µM
# Tubulin (Homo sapiens) [21] = target: T1, Tubulin (Homo sapiens); test: Inhibition of tubulin polymerization in human HeLa cells assessed as irregular cell morphology at 0.5 uM incubated for 6 hrs by DAPI staining based fluorescence microscopic analysis
# HFF-1 = test: Cytotoxicity against HFF-1 cells assessed as reduction in cell viability at 1 to 2 uM incubated for 48 hrs by XTT assay; format: toxicity, cell-based; conditions: human, hff-1, 48 h, dose 1-2 µM
# PC-3 [22] = test: Inhibition of colony formation in human PC-3 cells at IC50 incubated for 2 weeks with culture medium replacement for every 3 days by crystal violet staining based analysis; format: functional, cell-based
# HeLa [23] = test: Induction of cell cycle arrest in human HeLa cells assessed as accumulation of cells at G2/M phase at 1 uM incubated for 18 hrs by FACS flow cytometry analysis (reference value: 12.66 +/- 0.92 %); format: functional
# HeLa [24] = test: Induction of cell cycle arrest in human HeLa cells assessed as accumulation of cells at S phase at 1 uM incubated for 6 hrs by FACS flow cytometry analysis (reference value: 17.41 +/- 0.96 %); format: functional
# HeLa [25] = test: Induction of cell cycle arrest in human HeLa cells assessed as accumulation of cells at G1 phase at 1 uM incubated for 12 hrs by FACS flow cytometry analysis (reference value: 69.94 %); format: functional
# HeLa [26] = test: Induction of cell cycle arrest in human HeLa cells assessed as accumulation of cells at G1 phase at 1 uM incubated for 6 hrs by FACS flow cytometry analysis (reference value: 69.94 +/- 1.71 %); format: functional
# PC-3 [27] = test: Induction of cell cycle arrest in human PC-3 cells assessed as accumulation of cells at G2/M phase at 1 uM incubated for 18 hrs by FACS flow cytometry analysis (reference value: 20.74 %); format: functional
# PC-3 [28] = test: Induction of cell cycle arrest in human PC-3 cells assessed as accumulation of cells at G1 phase at 1 uM incubated for 6 hrs by FACS flow cytometry analysis (reference value: 44.2 +/- 2.21 %); format: functional
# Tubulin (Homo sapiens) [29] = target: T1, Tubulin (Homo sapiens); test: Inhibition of tubulin polymerization in human HeLa cells assessed as aberrations in mitotic spindle and nucleus at 0.5 uM incubated for 6 hrs by DAPI staining based fluorescence microscopic analysis; format: cell-based
smiles,measurement,setting,value
Cc1[nH]c2c(c1-c1nnc(-c3ccccc3)o1)Cc1ccccc1-2,Activity,HeLa [1],28.5%
same,Activity,PC-3 [2],5.86%
same,inhibition,HeLa [3],Active
same,Activity,HeLa [4],8.43%
same,Activity,PC-3 [5],53.05%
same,Activity,HeLa [6],2.9%
same,Activity,HeLa [7],55.05%
same,Activity,HeLa [8],6.4%
same,Activity,HeLa [9],1.48%
same,Activity,PC-3 [10],18.48%
same,Activity,HeLa [11],20.86%
same,inhibition,Tubulin (Homo sapiens) [12],Active
same,IC50,PC-3 [13],1660 nM
same,Activity,PC-3 [14],1.71%
same,Activity,PC-3 [15],0%
same,viability at 1 µM,HeLa [16],62.2%
same,Activity,PC-3 [17],38.61%
same,IC50,HeLa [18],68 nM
same,Activity,PC-3 [19],81.52%
same,IC50,MCF7,1720 nM
same,Activity,HeLa [20],41.41%
same,Activity,NB1,Non-Toxic
same,inhibition,Tubulin (Homo sapiens) [21],Active
same,Activity,HFF-1,Non-Toxic
same,inhibition,PC-3 [22],Active
same,Activity,HeLa [23],90.18%
same,Activity,HeLa [24],63.32%
same,Activity,HeLa [25],3.54%
same,Activity,HeLa [26],16.81%
same,Activity,PC-3 [27],92.97%
same,Activity,PC-3 [28],8.34%
same,inhibition,Tubulin (Homo sapiens) [29],Active
Cc1[nH]c2c(c1-c1nnc(-c3ccccc3Cl)s1)Cc1ccccc1-2,Activity,HeLa [1],17.4%
same,inhibition,HeLa [3],Active
same,Activity,HeLa [4],9.52%
same,Activity,PC-3 [5],51.2%
same,Activity,HeLa [6],31.9%
same,Activity,HeLa [8],5.9%
same,Activity,HeLa [9],1.49%
same,Activity,PC-3 [10],5.55%
same,Activity,HeLa [11],3.84%
same,inhibition,Tubulin (Homo sapiens) [12],Active
same,IC50,PC-3 [13],176 nM
same,Activity,PC-3 [15],1.71%
same,viability at 1 µM,HeLa [16],44.8%
same,Activity,PC-3 [17],37.68%
same,IC50,HeLa [18],145 nM
same,Activity,PC-3 [19],92.74%
same,IC50,MCF7,468 nM
same,Activity,NB1,Non-Toxic
same,inhibition,Tubulin (Homo sapiens) [21],Active
same,Activity,HFF-1,Non-Toxic
same,inhibition,PC-3 [22],Active
same,Activity,HeLa [23],88.99%
same,Activity,HeLa [24],68.91%
same,Activity,HeLa [26],27.25%
same,Activity,PC-3 [28],11.13%
same,inhibition,Tubulin (Homo sapiens) [29],Active
Cc1[nH]c2c(c1-c1nnc(-c3ccccc3)[se]1)Cc1ccccc1-2,Activity,HeLa [1],19.7%
same,inhibition,HeLa [3],Active
same,Activity,HeLa [4],10.36%
same,Activity,PC-3 [5],56.26%
same,Activity,HeLa [6],8.9%
same,Activity,HeLa [8],3.4%
same,Activity,HeLa [9],1.06%
same,Activity,PC-3 [10],6.68%
same,Activity,HeLa [11],5.51%
same,inhibition,Tubulin (Homo sapiens) [12],Active
same,IC50,PC-3 [13],72 nM
same,Activity,PC-3 [15],1.01%
same,viability at 1 µM,HeLa [16],68%
same,Activity,PC-3 [17],34.99%
same,IC50,HeLa [18],9 nM
same,Activity,PC-3 [19],92.31%
same,IC50,MCF7,176 nM
same,Activity,NB1,Non-Toxic
same,inhibition,Tubulin (Homo sapiens) [21],Active
same,Activity,HFF-1,Non-Toxic
same,inhibition,PC-3 [22],Active
same,Activity,HeLa [23],88.58%
same,Activity,HeLa [24],70.25%
same,Activity,HeLa [26],24.24%
same,Activity,PC-3 [28],8.76%
same,inhibition,Tubulin (Homo sapiens) [29],Active
